What was measured:
hMAPCs [1] = test: Blocking of Patched and Notch pathways during hMAPC-EC differentiation; type: cell-based, human; details: hMAPC-ECs, 14 days, exogenous VEGF present, cyclopamine 5 μM; for expression of arterial EC markers Hey-2, EphrinB1 and EphrinB2: L-685,458 1 μM
Method: For real time RT-PCR Syber Green and Taq Man® methods were used as described (Hong et al., 2004). GAPDH was used as a housekeeping control. […] Primers used for both RT-PCR and real time PCR are shown below in Table 2.
Blocking of Patched and Notch pathways was performed using cyclopamine Watkins et al., 2003) (Biomol) at 5 μM (added every 4-5 days with media change) and 1 μM of esecretase inhibitor L-685,458 (Bachem) (Dahlqvist et al., 2003), respectively. Exogenous VEGF was present in the media for the blocking experiments (no exogenous Shh or Dll-4).

rat MAPCs = test: Endothelial differentiation of rat MAPCs (qRT-PCR); type: cell-based; details: Shh-antibody 0.5 micrograms/ml, cyclopamine 10 micromolar
Method: (§1) Glass 4-well chambers with were coated with 1 μg/ml human fibronectin (Sigma, F0895) for about 30 minutes to about 1 hour in the 37° C. incubator. The cells were collected (with the use of 0.05% trypsin), counted and resuspended at 120K/ml in mouse MAPC culture media (see above). The fibronectin was taken off and the cells were seeded (1 ml per well) (=Day 0). The cells were then incubated at 37° C., 5% O2 overnight. […] The media was changed 50% (using differentiation media) on day 4 and from then on, media changed 50% every other day. For rat cells, the differentiation media contained 2% serum.

mouse MAPCs = test: Endothelial differentiation of mouse MAPCs (qRT-PCR); type: cell-based; details: Shh-antibody 0.5 micrograms/ml, cyclopamine 10 micromolar
Method: as §1

human MAPCs = details: about 10 ng/mL LIF, till 25 cell doublings; cited from earlier work
murine MAPCs = details: about 10 ng/mL LIF added to PDGF-BB and EGF; cited from earlier work
hMAPCs [2] = test: Smooth muscle differentiation from hMAPCs; type: cell-based, human; details: hMAPCs treated for 6 days, Q-RT-PCR and immunofluorescence
Method: Smooth muscle differentiation: hMAPCs were plated at 1×10^3 cells/cm^2 in growth media (58% low-glucose DMEM (Gibco BRL), 40% MCDB-201 (Sigma), 2% fetal calf serum (FCS) (Biochrom), ITS+1 (Sigma), 10^−8 M dexamethasone (Sigma), 10^−8 M ascorbic acid 2-phosphate (Sigma), 100 U penicillin, 1000 U streptomycin (Gibco BRL) and 10 ng/mL each of PDGF-BB and EGF during 24 hours and then media was exchanged with the same basal media, without FCS, EGF but now with 10 ng/ml TGF-β1. Media was changed every 4-5 days.

hMAPC = test: Lymphatic differentiation of hMAPC (real time PCR of Prox-1, Lyve-1, podoplanin); type: cell-based, human; details: compared with VEGF165 alone
Method: Arterial and/or venous differentiation was induced by addition of different combinations of the following growth factors: VEGF121 was used at 100 ng/ml and VEGF165 in different combinations with Delta-like 4 (Dll-4), Jagged-1, or Shh (all from R&DSystems) all at 100 ng/ml. Lymphatic differentiation was induced by addition of 100 ng/ml VEGF-C(R&DSystems) and 20 ng/ml bFGF (Sigma). Except for VEGF121, which was added alone, the other factors were added at the same time as VEGF165 in the various described combinations.
For real time RT-PCR Syber Green and Taq Man® methods were used as described (Hong et al., 2004). GAPDH was used as a housekeeping control. Results are presented as fold increase in comparison with the expression of the gene in undifferentiated cells or as percentage of positive control (cord blood derived venous and arterial ECs) (Jaffe et al., 1973; Neuhaus et al., 2003). Primers used for both RT-PCR and real time PCR are shown below in Table 2.

CC1=C2C[C@H]3[C@@H](CC=C4C[C@@H](O)CC[C@@]43C)[C@@H]2CC[C@]12O[C@@H]1C[C@H](C)CN[C@H]1[C@H]2C [cyclopamine]
expression of the venous marker EphB4 (hMAPCs [1]): slightly increased | expression of arterial EC markers Hey-2, EphrinB1 and EphrinB2 (hMAPCs [1]): significantly decreased | arterial component in the cell cultures (rat MAPCs): decrease the arterial component | arterial component in the cell cultures (mouse MAPCs): decrease the arterial component

CC(C)C[C@H](NC(=O)[C@H](Cc1ccccc1)C[C@@H](O)[C@H](Cc1ccccc1)NC(=O)OC(C)(C)C)C(=O)N[C@@H](Cc1ccccc1)C(N)=O [γ-secretase inhibitor, L-685,458]
expression of arterial EC markers Hey-2, EphrinB1 and EphrinB2 (hMAPCs [1]): even more pronounced attenuation

LIF: leukemia inhibitory factor, culture supplement
short-term cell growth (human MAPCs): did not affect short-term cell growth | cell growth (murine MAPCs): significantly enhanced cell growth

TGF-β1: growth factor, 10 ng/ml, used for smooth muscle differentiation
expression of SMC markers (hMAPCs [2]): upregulated expression of SMC markers

B1: VEGF-C: VEGF family growth factor (R&DSystems) used for lymphatic differentiation (protein, UniProt P49767 112-227, looked up)
Vascular endothelial growth …: AHYNTEILKSIDNEWRKTQCMPREVCIDVGKEFGVATNTFFKPPCVSVYRCGGCCNSEGLQCMNTSTSYLSKTLFEITVPLSQGPKPVTISFANHTSCRCMSKLDVYRQVHSIIRR
expression of lymphatic genes Prox-1, Lyve-1 and podoplanin (hMAPC): does not enhance expression of these genes more than VEGF165 alone

Source: patent US20090104159A1, “Vascular/Lymphatic Endothelial Cells” (priority 2005, published 2009)
